From ChEMBL document CHEMBL1949508, “The selective cytotoxic activity in breast cancer cells by an anthranilic alcohol-derived acyclic 5-fluorouracil O,N-acetal is mediated by endoplasmic reticulum stress-induced apoptosis” (Eur J Med Chem, 2012)
The source made the active and inactive calls. The calls are words filed in the database; no cut-off is given here.

How the values were obtained:
MCF7 [1] = test: Downregulation of E2F1 gene in human MCF7 cells at 1.09 uM after 48 hrs by microarray hybridization relative to control; assay type: functional
MCF7 [2] = test: Downregulation of AVEN gene in human MCF7 cells at 1.09 uM after 48 hrs by microarray hybridization relative to control; assay type: functional
MCF-10A [3] = test: Induction of apoptosis in human MCF10A cells assessed as apoptotic cells at 37.67 uM after 48 hrs by annexinV-FITC/PI-based flow cytometry relative to control; assay type: cell-based
MCF7 [4] = test: Upregulation of BBC3 gene in human MCF7 cells at 1.09 uM after 48 hrs by quantitative RT-PCR analysis; assay type: functional, cell-based
MCF-10A [5] = test: Downregulation of FAIM gene in human MCF10A cells at 37.67 uM after 48 hrs by microarray hybridization relative to control; assay type: functional, cell-based
MCF7 [6] = test: Downregulation of CARD9 gene in human MCF7 cells at 1.09 uM after 48 hrs by microarray hybridization relative to control; assay type: functional
MCF-10A [7] = test: Upregulation of MTL5 gene in human MCF10A cells at 37.67 uM after 48 hrs by microarray hybridization relative to control; assay type: functional, cell-based
MCF7 [8] = test: Antiproliferative activity against human MCF7 cells assessed as cell viability at 1.09 uM after […] by SRB assay (reference value: 96.35 +/- 1.32%); assay type: functional; conditions: read-out: Activity
MCF-10A [9] = test: Upregulation of BBC3 gene in human MCF10A cells at 37.67 uM after 48 hrs by quantitative RT-PCR analysis; assay type: functional, cell-based
MCF7 [10] = test: Modulation of Apaf-1 gene expression in human MCF7 cells at 1.09 uM after 48 hrs by quantitative RT-PCR analysis; assay type: functional, cell-based
MCF7 [11] = test: Upregulation of NOXA gene in human MCF7 cells at 1.09 uM after 48 hrs by microarray hybridization relative to control; assay type: functional
MCF7 [12] = test: Upregulation of BBC3 protein expression in human MCF7 cells at […] after 48 hrs by Western blot analysis relative to control; assay type: functional
MCF7 [13] = test: Upregulation of GADD45A gene in human MCF7 cells at 1.09 uM after 48 hrs by microarray hybridization relative to control; assay type: functional
MCF7 [14] = test: Induction of necrosis in human MCF7 cells assessed as necrotic cells at 1.09 uM after 48 hrs by annexinV-FITC/PI-based flow cytometry (reference value: 0.27 +/- 0.01%); assay type: functional
MCF7 [15] = test: Induction of apoptosis in human MCF7 cells assessed as apoptotic cells at 1.09 uM after 48 hrs by annexinV-FITC/PI-based flow cytometry relative to control; assay type: functional
MCF-10A [16] = test: Downregulation of TP5313 gene in human MCF10A cells at 37.67 uM after 48 hrs by microarray hybridization relative to control; assay type: functional, cell-based
MCF-10A [17] = test: Upregulation of BMF gene in human MCF10A cells at 37.67 uM after 48 hrs by microarray hybridization relative to control; assay type: functional, cell-based
MCF7 [18] = test: Downregulation of Bcl2 gene expression in human MCF7 cells at 1.09 uM after 48 hrs by quantitative RT-PCR analysis; assay type: functional, cell-based
MCF-10A [19] = test: Induction of apoptosis in human MCF10A cells assessed as early apoptotic cells at 37.67 uM after 48 hrs by annexinV-FITC/PI-based flow cytometry (reference value: 0.73 +/- 0.23%); assay type: cell-based
MCF7 [20] = test: Downregulation of FAIM gene in human MCF7 cells at 1.09 uM after 48 hrs by microarray hybridization relative to control; assay type: functional
MCF7 [21] = test: Downregulation of TP5313 gene in human MCF7 cells at 1.09 uM after 48 hrs by microarray hybridization relative to control; assay type: functional
MCF-10A [22] = test: Upregulation of CARD14 gene in human MCF10A cells at 37.67 uM after 48 hrs by microarray hybridization relative to control; assay type: functional, cell-based
MCF7 [23] = test: Downregulation of UNC5C gene in human MCF7 cells at 1.09 uM after 48 hrs by microarray hybridization relative to control; assay type: functional
MCF-10A [24] = test: Upregulation of NOXA gene in human MCF10A cells at 37.67 uM after 48 hrs by microarray hybridization relative to control; assay type: functional, cell-based
MCF7 [25] = test: Upregulation of MTL5 gene in human MCF7 cells at 1.09 uM after 48 hrs by microarray hybridization relative to control; assay type: functional
[26] = Antiproliferative activity against human MCF10A cells assessed as viable cells at 37.67 uM after […] by SRB assay (reference value: 98.46 +/- 3.2%); assay type: cell-based, MCF-10A; conditions: read-out: Activity
MCF-10A [27] = test: Upregulation of BNIP3 gene in human MCF10A cells at 37.67 uM after 48 hrs by microarray hybridization relative to control; assay type: functional, cell-based
MCF-10A [28] = test: Downregulation of UNC5C gene in human MCF10A cells at 37.67 uM after 48 hrs by microarray hybridization relative to control; assay type: functional, cell-based
MCF7 [29] = test: Upregulation of CARD14 gene in human MCF7 cells at 1.09 uM after 48 hrs by microarray hybridization relative to control; assay type: functional
MCF-10A [30] = test: Downregulation of […] gene in human MCF10A cells at 37.67 uM after 48 hrs by microarray hybridization relative to control; assay type: functional, cell-based
MCF7 [31] = test: Downregulation of CCL2 gene in human MCF7 cells at 1.09 uM after 48 hrs by microarray hybridization relative to control; assay type: functional

## COC(CN(c1ccccc1CO)S(=O)(=O)c1ccccc1N)n1cc(F)c(=O)[nH]c1=O (racemic)
MCF7 [1]
  fold change (FC): -2.61
MCF7 [2]
  fold change (FC): -2.21
MCF-10A [3]
  Activity: 19.86%
MCF7 [4]
  Activity: Active
MCF-10A [5]
  Activity: inactive
MCF7 [6]
  fold change (FC): -2.11
MCF-10A [7]
  Activity: inactive
MCF7 [8]
  viability at 1.09 µM: 6.35%
MCF-10A [9]
  Activity: inactive
MCF7 [10]
  Activity: inactive
MCF7 [11]
  fold change (FC): 2.02
MCF7 [12]
  fold change (FC): 2.74
MCF7 [13]
  fold change (FC): 2.54
MCF7 [14]
  Activity: 2.52%
MCF7 [15]
  Activity: 90.73%
MCF-10A [16]
  Activity: inactive
MCF-10A [17]
  Activity: inactive
MCF7 [18]
  Activity: Active
MCF-10A [19]
  Activity: 2.57%
MCF7 [20]
  fold change (FC): -3.1
MCF7 [21]
  fold change (FC): -2.68
MCF-10A [22]
  Activity: inactive
MCF7 [23]
  fold change (FC): -2.01
MCF-10A [24]
  Activity: inactive
MCF7 [25]
  fold change (FC): 3.75
[26]
  viability at 37.67 µM: 30.9%
MCF-10A [27]
  Activity: inactive
MCF-10A [28]
  Activity: inactive
MCF7 [29]
  fold change (FC): 2.34
MCF-10A [30]
  Activity: inactive
MCF7 [31]
  fold change (FC): -3.77
